Measurements from ChEMBL document CHEMBL5728485, “Biaryloxy derivatives as TTX-S blockers” (2021).

Target: Sodium channel protein type 9 subunit alpha (Homo sapiens, UniProt Q15858)
Assay: EFS-FRET Assay: This screen is used to determine the effects of compounds on human Nav1.7 channels, utilizing electrical field stimulation (EFS) system in 96-well plate format on FDSS (Hamamatsu Photonics) platform. The changes of membrane potential are monitored with FRET dye pair, DiSBAC2(3) and PTS 18.

Chain of Sodium channel protein type 9 subunit alpha (Q15858 whole entry): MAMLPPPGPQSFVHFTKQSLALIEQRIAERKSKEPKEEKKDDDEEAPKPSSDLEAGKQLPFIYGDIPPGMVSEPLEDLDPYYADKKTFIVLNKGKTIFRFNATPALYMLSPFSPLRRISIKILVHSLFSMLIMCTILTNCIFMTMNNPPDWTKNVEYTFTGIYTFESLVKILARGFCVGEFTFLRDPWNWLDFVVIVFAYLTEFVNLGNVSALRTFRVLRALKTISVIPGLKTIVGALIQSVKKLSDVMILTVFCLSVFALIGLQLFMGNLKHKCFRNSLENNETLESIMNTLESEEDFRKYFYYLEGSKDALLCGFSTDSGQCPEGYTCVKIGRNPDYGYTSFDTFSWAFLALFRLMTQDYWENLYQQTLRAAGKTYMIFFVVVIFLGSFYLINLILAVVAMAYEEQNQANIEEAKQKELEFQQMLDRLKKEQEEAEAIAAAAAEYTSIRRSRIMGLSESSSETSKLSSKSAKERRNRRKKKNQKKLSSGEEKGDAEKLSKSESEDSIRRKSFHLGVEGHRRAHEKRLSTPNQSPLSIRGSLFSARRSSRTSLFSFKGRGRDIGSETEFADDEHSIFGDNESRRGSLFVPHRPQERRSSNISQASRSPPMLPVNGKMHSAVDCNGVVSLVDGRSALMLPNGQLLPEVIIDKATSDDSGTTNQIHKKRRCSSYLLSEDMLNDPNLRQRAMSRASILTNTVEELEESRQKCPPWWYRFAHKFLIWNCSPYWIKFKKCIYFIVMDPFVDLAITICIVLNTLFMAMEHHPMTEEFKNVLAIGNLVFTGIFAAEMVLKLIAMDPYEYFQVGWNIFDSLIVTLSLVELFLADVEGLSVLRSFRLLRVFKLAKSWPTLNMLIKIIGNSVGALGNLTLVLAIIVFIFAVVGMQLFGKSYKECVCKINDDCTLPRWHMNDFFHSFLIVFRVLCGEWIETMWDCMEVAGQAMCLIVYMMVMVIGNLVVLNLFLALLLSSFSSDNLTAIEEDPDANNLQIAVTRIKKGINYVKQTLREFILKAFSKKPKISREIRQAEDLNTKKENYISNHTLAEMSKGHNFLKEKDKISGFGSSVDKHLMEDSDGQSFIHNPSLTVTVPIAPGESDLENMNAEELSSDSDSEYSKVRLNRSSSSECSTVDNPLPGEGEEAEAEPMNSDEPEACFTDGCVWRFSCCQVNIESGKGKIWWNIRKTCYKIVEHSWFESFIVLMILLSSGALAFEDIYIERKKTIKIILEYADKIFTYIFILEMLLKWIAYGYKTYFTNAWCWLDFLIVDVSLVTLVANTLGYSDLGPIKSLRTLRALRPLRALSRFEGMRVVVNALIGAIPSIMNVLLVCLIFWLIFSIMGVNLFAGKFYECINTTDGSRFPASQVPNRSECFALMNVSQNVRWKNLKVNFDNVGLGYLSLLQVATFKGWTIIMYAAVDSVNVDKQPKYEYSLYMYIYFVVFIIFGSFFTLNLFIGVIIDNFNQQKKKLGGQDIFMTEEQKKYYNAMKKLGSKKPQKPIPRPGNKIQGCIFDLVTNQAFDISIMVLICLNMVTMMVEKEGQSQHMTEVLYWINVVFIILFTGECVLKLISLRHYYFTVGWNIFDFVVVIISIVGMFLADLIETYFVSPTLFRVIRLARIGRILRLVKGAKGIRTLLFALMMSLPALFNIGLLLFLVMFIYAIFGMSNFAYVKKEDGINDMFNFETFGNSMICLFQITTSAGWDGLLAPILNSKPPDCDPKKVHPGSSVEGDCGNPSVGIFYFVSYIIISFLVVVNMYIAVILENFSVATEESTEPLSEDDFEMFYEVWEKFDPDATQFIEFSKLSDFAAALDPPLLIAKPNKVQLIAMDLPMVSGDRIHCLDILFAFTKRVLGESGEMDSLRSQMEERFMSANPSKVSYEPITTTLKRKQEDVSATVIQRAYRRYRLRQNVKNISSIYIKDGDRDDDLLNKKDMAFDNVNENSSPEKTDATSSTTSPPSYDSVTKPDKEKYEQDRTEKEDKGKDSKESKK

Compound | IC50 [µM]
Cc1cc(OCc2ccc(C(=O)NS(=O)(=O)C3CC3)cc2F)cc(-c2ccc(OCC3CC3)nc2)c1 | < 0.5
O=C(NS(=O)(=O)c1cccs1)c1cc(Cl)c(COc2cccc(-c3ccc(OCC4CC4)nc3)c2)cc1F | < 0.5
Cc1cc(OCC2CC2)ncc1-c1cc(F)cc(OCc2ccc(C(=O)NS(C)(=O)=O)cc2)c1 | < 0.5
Cc1nc(OCC2CCC2)ccc1-c1cc(F)cc(OCc2ccc(C(=O)NS(C)(=O)=O)cc2)c1 | < 0.5
O=C(NS(=O)(=O)C1CC1)c1ccc(COc2cccc(-c3ccc(OCC4CC4)nc3)c2)c(F)c1 | < 0.5
CS(=O)(=O)NC(=O)c1ccc(COc2cccc(-c3ccc(OCC4CCC4)nc3CO)c2)cc1 | < 0.5
